Data set [1] is described as follows: xn = mol fraction of the nth substance listed. Particulars: 101 kPa, Liquid, x2 = 0.
For data set [2] the following is noted: 101 kPa, Liquid; for mass density: Pycnometric method.

± gives the expanded uncertainty stated by the source.

Take `O` [water] + CCOCCOCCOCCO: the viscosity turned out to be 1.005 ± 0.025 mPa·s in data set [1] (293.15 K); 0.8007 ± 0.02 mPa·s in data set [1] (303.15 K); 0.656 ± 0.017 mPa·s in data set [1] (313.15 K); 0.5494 ± 0.015 mPa·s in data set [1] (323.15 K); 0.4688 ± 0.013 mPa·s in data set [1] (333.15 K). Moreover, in data set [1] (333.15 K, Pycnometric method), the mass density amounted to 983.2 ± 2 kg/m3.

As to `CCOCCOCCOCCO` [2-(2-(2-ethoxyethoxy)ethoxy)ethanol], the viscosity is reported as 7.796 ± 0.16 mPa·s in data set [2] (293.15 K); 6.739 ± 0.14 mPa·s in data set [2] (298.15 K); 5.657 ± 0.12 mPa·s in data set [2] (303.15 K); 4.185 ± 0.094 mPa·s in data set [2] (313.15 K); 3.326 ± 0.076 mPa·s in data set [2] (323.15 K); 2.627 ± 0.061 mPa·s in data set [2] (333.15 K). The mass density is reported as 1020.6 ± 2.1 kg/m3 in data set [2] (293.15 K); 1016.3 ± 2.1 kg/m3 in data set [2] (298.15 K); 1011.9 ± 2.1 kg/m3 in data set [2] (303.15 K); 1008.1 ± 2.1 kg/m3 in data set [2] (308.15 K); 1003.9 ± 2.1 kg/m3 in data set [2] (313.15 K); 995.5 ± 2 kg/m3 in data set [2] (323.15 K). In data set [2] (333.15 K), the mass density came out at 986.7 ± 2 kg/m3.

One may read the viscosity as the internal friction of a fluid under shear. For orientation: mass density means the mass of a sample divided by its volume.

The record behind these values is the NIST ThermoML archive (doi:10.1021/je9008014).
